The values that follow come from patent publication US20250129078A1, “ERBB2 INHIBITORS” (Cogent Biosciences, Inc., priority 2023, published 2025).

Structures can show the parent of a compound that is named as a salt.

Experiment [1] has as its target ErbB2 V777L (Homo sapiens (Human), UniProt P04626, V777L). Put plainly: ErbB enzyme assay (CisBio HTRF-KinEASE-TK), ErbB2 V777L. The experiment is classed as biochemical. Here is the method:
In vitro enzyme assays based on CisBio HTRF-KinEASE-TK technology were used to determine compound potencies. […] After another 1 h incubation at ambient temperature, the extent of substrate phosphorylation was determined using a PerkinElmer EnVision multimode plate reader via time-resolved fluorescence dual wavelength detection. The percent of control (POC) was calculated using the ratio of emission at […] to the emission at 620 nm. One hundred POC was determined using DMSO only controls (no test compounds present) and zero POC was determined using pre-quenched controls reactions. A 4-parameter logistic equation was fit to the POC values as a function of the test compound concentration and the IC50 value was determined as the point where the curve crossed 50 POC.

Experiment [2] concerns the target EGFR WT (Homo sapiens (Human), UniProt P00533). The experiment is described as follows: ErbB enzyme assay (CisBio HTRF-KinEASE-TK), EGFR WT. To be noted: ATP at Km (25 μM), 1 h incubation. It is filed as biochemical. An outline of the steps:
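HTRF KinEASE-TK kinase reactions ran 1 h at ambient temperature with three-fold serial compound dilutions, then were quenched with Sa-XL665 and TK-Ab-Cryptate. After 1 h more, 655/620 nm time-resolved fluorescence gave percent of control; a 4-parameter logistic fit defined IC50 at 50 POC.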

Chain of ErbB2 V777L (P04626 23-1255 V777L): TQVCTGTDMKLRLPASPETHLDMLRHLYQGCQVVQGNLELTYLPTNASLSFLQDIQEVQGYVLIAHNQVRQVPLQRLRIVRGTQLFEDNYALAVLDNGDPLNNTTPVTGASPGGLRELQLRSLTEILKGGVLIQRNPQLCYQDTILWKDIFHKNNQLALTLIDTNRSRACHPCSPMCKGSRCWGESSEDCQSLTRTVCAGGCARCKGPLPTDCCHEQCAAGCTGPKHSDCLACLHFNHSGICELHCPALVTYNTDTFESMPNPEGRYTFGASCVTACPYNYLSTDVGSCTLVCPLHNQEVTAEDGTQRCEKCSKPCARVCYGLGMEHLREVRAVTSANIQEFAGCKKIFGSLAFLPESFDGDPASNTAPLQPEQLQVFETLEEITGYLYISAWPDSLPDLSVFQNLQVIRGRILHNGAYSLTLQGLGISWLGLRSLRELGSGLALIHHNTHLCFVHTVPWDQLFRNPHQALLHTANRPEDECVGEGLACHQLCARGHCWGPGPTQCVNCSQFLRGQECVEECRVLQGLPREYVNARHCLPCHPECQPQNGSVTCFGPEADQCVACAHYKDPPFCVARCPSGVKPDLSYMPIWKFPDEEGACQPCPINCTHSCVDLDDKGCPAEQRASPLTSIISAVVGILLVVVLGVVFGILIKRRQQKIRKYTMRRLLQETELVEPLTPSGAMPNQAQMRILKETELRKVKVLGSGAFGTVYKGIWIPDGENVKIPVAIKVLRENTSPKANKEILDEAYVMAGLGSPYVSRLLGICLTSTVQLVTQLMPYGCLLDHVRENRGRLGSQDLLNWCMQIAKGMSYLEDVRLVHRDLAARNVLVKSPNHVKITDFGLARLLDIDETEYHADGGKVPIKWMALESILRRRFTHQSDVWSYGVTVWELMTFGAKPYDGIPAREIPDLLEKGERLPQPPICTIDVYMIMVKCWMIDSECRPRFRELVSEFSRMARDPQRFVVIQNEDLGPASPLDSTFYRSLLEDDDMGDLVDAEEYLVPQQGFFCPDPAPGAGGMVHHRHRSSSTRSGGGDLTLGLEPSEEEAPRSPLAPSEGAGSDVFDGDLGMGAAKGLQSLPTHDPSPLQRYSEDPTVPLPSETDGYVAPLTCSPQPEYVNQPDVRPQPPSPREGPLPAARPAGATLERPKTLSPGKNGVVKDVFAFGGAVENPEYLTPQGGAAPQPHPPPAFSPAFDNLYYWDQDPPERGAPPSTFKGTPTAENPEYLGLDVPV
Chain of EGFR WT (P00533 25-1210): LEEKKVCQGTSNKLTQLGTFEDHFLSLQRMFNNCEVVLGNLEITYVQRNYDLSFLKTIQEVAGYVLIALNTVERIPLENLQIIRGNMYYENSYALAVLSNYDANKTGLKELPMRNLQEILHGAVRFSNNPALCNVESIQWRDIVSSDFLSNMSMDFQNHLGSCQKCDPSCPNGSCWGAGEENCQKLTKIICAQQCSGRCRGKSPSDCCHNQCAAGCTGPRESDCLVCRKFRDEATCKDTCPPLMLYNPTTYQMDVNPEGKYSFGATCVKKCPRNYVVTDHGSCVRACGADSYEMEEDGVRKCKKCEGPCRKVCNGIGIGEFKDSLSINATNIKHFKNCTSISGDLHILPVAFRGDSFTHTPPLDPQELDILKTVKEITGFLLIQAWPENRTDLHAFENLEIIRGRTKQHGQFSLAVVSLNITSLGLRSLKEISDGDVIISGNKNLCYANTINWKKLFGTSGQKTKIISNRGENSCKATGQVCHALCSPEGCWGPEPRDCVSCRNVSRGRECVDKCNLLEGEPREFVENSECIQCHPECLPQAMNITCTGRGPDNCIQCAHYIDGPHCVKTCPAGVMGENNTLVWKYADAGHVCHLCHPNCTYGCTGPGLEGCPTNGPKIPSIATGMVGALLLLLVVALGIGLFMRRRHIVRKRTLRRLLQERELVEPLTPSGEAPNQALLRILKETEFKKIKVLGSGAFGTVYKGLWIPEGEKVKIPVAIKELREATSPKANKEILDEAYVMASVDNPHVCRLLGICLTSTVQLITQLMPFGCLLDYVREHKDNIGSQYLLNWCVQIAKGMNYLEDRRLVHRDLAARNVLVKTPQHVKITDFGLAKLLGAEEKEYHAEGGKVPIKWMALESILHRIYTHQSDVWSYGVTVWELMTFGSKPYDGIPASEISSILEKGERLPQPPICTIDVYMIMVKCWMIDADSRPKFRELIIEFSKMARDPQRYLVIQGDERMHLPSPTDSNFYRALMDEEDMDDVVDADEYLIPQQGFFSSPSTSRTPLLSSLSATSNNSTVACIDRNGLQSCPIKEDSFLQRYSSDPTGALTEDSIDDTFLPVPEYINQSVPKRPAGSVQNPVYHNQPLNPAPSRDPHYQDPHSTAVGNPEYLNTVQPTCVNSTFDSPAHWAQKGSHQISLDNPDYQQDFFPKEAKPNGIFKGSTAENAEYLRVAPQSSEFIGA

On to `C=CC(=O)N1C[C@@H](N(C)c2ccc3ncnc(Nc4ccc(Oc5ccc6c(c5)nnn6C)c(C)c4)c3n2)C[C@H]1C` [Compound 351, 1-((2R,4S)-2-methyl-4-(methyl(4-((3-methyl-4-((1-methyl-H-benzo[d][1,2,3]triazol-5-yl)oxy)phenyl)amino)pyrido[3,2-d]pyrimidin-6-yl)amino)pyrrolidin-1-yl)prop-2-en-1-one], for which the IC50 in experiment [1] is 100 to 500 nM; in experiment [2], 500 to 1000 nM.
Take `C=CC(=O)N1CCN(c2ccc3ncnc(Nc4cc(C)c(Oc5ccc6c(c5)nnn6C)cc4OC(F)F)c3n2)CC1` [Compound 315, 1-(4-(4-((2-(difluoromethoxy)-5-methyl-4-((1-methyl-1H-benzo[d][1,2,3]triazol-5-yl)oxy)phenyl)amino)pyrido[3,2-d]pyrimidin-6-yl)piperazin-1-yl)prop-2-en-1-one]: the IC50 in experiment [1] is 50 to 100 nM; in experiment [2], 100 to 500 nM.
Turning to `C=CC(=O)N1CCN(c2ccc3ncnc(Nc4ccc(Oc5ccc6c(c5)nnn6C)c(C)c4F)c3n2)C[C@H]1C(C)C` [Compound 259, (R)-1-(4-(4-((2-fluoro-3-methyl-4-((1-methyl-1H-benzo[d][1,2,3]triazol-5-yl)oxy)phenyl)amino)pyrido[3,2-d]pyrimidin-6-yl)-2-isopropylpiperazin-1-yl)prop-2-en-1-one], the results for the half-maximal inhibitory concentration (IC50) in experiment [1] and in experiment [2] were 500 to 1000 nM and no less than 1000 nM, respectively.
Regarding `C=CC(=O)N1C2CCCC1CC(c1ccc3ncnc(Nc4ccc(Oc5ccc6c(c5)nnn6C)c(C)c4F)c3n1)C2` (stereo not shown) [Compound 402, 1-(3-(4-((2-fluoro-3-methyl-4-((1-methyl-1H-benzo[d][1,2,3]triazol-5-yl)oxy)phenyl)amino)pyrido[3,2-d]pyrimidin-6-yl)-9-azabicyclo[3.3.1]nonan-9-yl)prop-2-en-1-one trifluoroacetate], the IC50 in experiment [1] and in experiment [2] was 100 to 500 nM in each case.
In the case of `C=CC(=O)N1CCN(c2ccc3ncnc(Nc4ccc(Oc5cnc6c(c5)ncn6C(F)F)c(C)c4F)c3n2)C[C@H]1C` [Compound 261, (R)-1-(4-(4-((4-((3-(difluoromethyl)-3H-imidazo[4,5-b]pyridin-6-yl)oxy)-2-fluoro-3-methylphenyl)amino)pyrido[3,2-d]pyrimidin-6-yl)-2-methylpiperazin-1-yl)prop-2-en-1-one], the half-maximal inhibitory concentration (IC50) is 100 to 500 nM in experiment [1] and less than 50 nM in experiment [2].
Take `C=CC(=O)N1C[C@@H]2C[C@H]1CN(c1ncc3ncnc(Nc4ccc(Oc5cc(F)c6c(c5)ncn6C)c(C)c4F)c3n1)C2` [Compound 175, 1-((1R,5S)-3-(8-((2-fluoro-4-((7-fluoro-1-methyl-1H-benzo[d]imidazol-5-y1)oxy)-3-methylphenyl)amino)pyrimido[5,4-d]pyrimidin-2-yl)-3,6-diazabicyclo[3.2.1]octan-6-yl)prop-2-en-1-one]: the IC50 in experiment [1] was in the range of 100 to 500 nM; in experiment [2], 50 to 100 nM.
As to `C=CC(=O)N[C@@H]1C[C@H](F)CN(c2ccc3ncnc(Nc4ccc(Oc5ccc6c(c5)nnn6C)c(C)c4F)c3n2)C1` [Compound 298, N-((3R,5S)-5-fluoro-1-(4-((2-fluoro-3-methyl-4-((1-methyl-1H-benzo[d][1,2,3]triazol-5-yl)oxy)phenyl)amino)pyrido[3,2-d]pyrimidin-6-yl)piperidin-3-yl)acrylamide], the IC50 in experiment [1] was 50 to 100 nM; in experiment [2] it was less than 50 nM.
On the same counts, the results for `C=CC(=O)N1CCN(c2ccc3ncnc(Nc4ccc(Oc5ccc6c(c5)nnn6C(F)F)c(C)c4F)c3n2)C[C@H]1C` [Compound 323, (R)-1-(4-(4-((4-((1-(difluoromethyl)-1H-benzo[d][1,2,3]triazol-5-yl)oxy)-2-fluoro-3-methylphenyl)amino)pyrido[3,2-d]pyrimidin-6-yl)-2-methylpiperazin-1-yl)prop-2-en-1-one] are 500 to 1000 nM and 100 to 500 nM.
As to `COC/C=C/C(=O)N1CCN(c2ncc3ncnc(Nc4ccc(Oc5ccc6c(c5)nnn6C)c(C)c4)c3n2)CC1` [Compound 56, (E)-4-methoxy-1-(4-(8-((3-methyl-4-((1-methyl-1H-benzo[d][1,2,3]triazol-5-yl)oxy)phenyl)amino)pyrimido [5,4-d]pyrimidin-2-yl)piperazin-1-yl) but-2-en-1-one], the IC50 in experiment [1] fell in the range of 100 to 500 nM; in experiment [2], 500 to 1000 nM.
On to `Cc1cc(Nc2ncnc3cnc(N4CCN(C(=O)/C=C/CN(C)C)CC4)nc23)ccc1Oc1ccc2c(c1)nnn2C` [Compound 58, (E)-4-(dimethyl-amino)-1-(4-(8-((3-methyl-4-((1-methyl-1H-benzo[d][1,2,3]triazol-5-yl)oxy)phenyl)amino)pyrimido [5,4-d]pyrimidin-2-yl)piperazin-1-yl)but-2-en-1-one], for which the half-inhibitory concentration (IC50) in experiment [1] and in experiment [2] was 50 to 100 nM each time.
With `C=CC(=O)N1CCN(c2ncc3ncnc(Nc4ccc(Oc5ccc6c(c5)nnn6C)c(C)c4)c3n2)C[C@H]1C1CC1` [Compound 196, (R)-1-(2-cyclopropyl-4-(8-((3-methyl-4-((1-methyl-1H-benzo[d][1,2,3]triazol-5-yl)oxy)phenyl)amino)pyrimido[5,4-d]pyrimidin-2-yl)piperazin-1-yl)prop-2-en-1-one], the values for the IC50 in experiment [1] and in experiment [2] were 100 to 500 nM and 500 to 1000 nM, respectively.
Regarding `Cc1cc(Nc2ncnc3cnc(N4CCN(C(=O)/C=C/CF)CC4)nc23)ccc1Oc1ccc2c(c1)nnn2C` [Compound 210, (E)-4-fluoro-1-(4-(8-((3-methyl-4-((1-methyl-1H-benzo[d][1,2,3]triazol-5-yl)oxy)phenyl)amino)pyrimido [5,4-d]pyrimidin-2-yl)piperazin-1-yl)but-2-en-1-one], the values for the IC50 in experiment [1] and in experiment [2] were 50 to 100 nM and 100 to 500 nM, respectively.
As to `C=CC(=O)N1CCN(c2ncc3ncnc(Nc4ccc(Oc5ccc6c(c5)nnn6C)c(C)c4)c3n2)[C@@H](C)C1` [Compound 18, (S)-1-(3-methyl-4-(8-((3-methyl-4-((1-methyl-1H-benzo[d][1,2,3]triazol-5-yl)oxy)phenyl)amino)pyrimido[5,4-d]pyrimidin-2-yl)piperazin-1-yl)prop-2-en-1-one 2,2,2-trifluoroacetate], the IC50 lay in the range of 50 to 100 nM in experiment [1] and 100 to 500 nM in experiment [2].
Take `C=CC(=O)N[C@@H]1CCCN(c2ncc3ncnc(Nc4ccc(Oc5ccc6c(c5)nnn6C)c(C)c4F)c3n2)C1` [Compound 157, (R)-N-(1-(8-((2-fluoro-3-methyl-4-((1-methyl-1H-benzo[d][1,2,3]triazol-5-yl)oxy)phenyl)amino)pyrimido[5,4-d]pyrimidin-2-yl)piperidin-3-yl)acrylamide]: the IC50 lay within 50 to 100 nM in experiment [1] and 100 to 500 nM in experiment [2].
Regarding `C=CC(=O)N1CCN(c2ccc3ncnc(Nc4ccc(Oc5ccc6c(c5)ncn6C(F)F)c(C)c4)c3n2)C[C@@H]1C1CC1` [Compound 278, (S)-1-(2-cyclopropyl-4-(4-((4-((1-(difluoromethyl)-1H-benzo[d]imidazol-5-yl)oxy)-3-methylphenyl)amino)pyrido[3,2-d]pyrimidin-6-yl)piperazin-1-yl)prop-2-en-1-one], the figures for the IC50 in experiment [1] and in experiment [2] were 100 to 500 nM and 500 to 1000 nM, respectively.
On the same counts, the results for `C=CC(=O)N1CCN(c2ccc3ncnc(Nc4ccc(Oc5ccc6c(c5)nnn6C)c(C)c4F)c3n2)C[C@H]1CC` [Compound 258, (R)-1-(2-ethyl-4-(4-((2-fluoro-3-methyl-4-((1-methyl-1H-benzo[d][1,2,3]triazol-5-yl)oxy)phenyl)amino)pyrido[3,2-d]pyrimidin-6-yl)piperazin-1-yl)prop-2-en-1-one] are 100 to 500 nM and 100 to 500 nM.
On the same counts, the results for `C=CC(=O)N1CCN(c2ccc3ncnc(Nc4ccc(Oc5ccc6c(c5)nnn6C)c(C)c4)c3n2)C[C@H]1C1CC1` [Compound 335, (R)-1-(2-cyclopropyl-4-(4-((3-methyl-4-((1-methyl-1H-benzo[d][1,2,3]triazol-5-yl)oxy)phenyl)amino)pyrido[3,2-d]pyrimidin-6-yl)piperazin-1-yl)prop-2-en-1-one] are 50 to 100 nM and 100 to 500 nM.
Consider `C=CC(=O)N1CCN(c2ncc3ncnc(Nc4ccc(Oc5ccc6c(c5)nnn6C)c(C)c4F)c3n2)C[C@H]1C` [Compound 156, (R)-1-(4-(8-((2-fluoro-3-methyl-4-((1-methyl-1H-benzo[d][1,2,3]triazol-5-yl)oxy)phenyl)amino)pyrimido[5,4-d]pyrimidin-2-y1)-2-methylpiperazin-1-yl)prop-2-en-1-one], for which the IC50 in experiment [1] and in experiment [2] was 100 to 500 nM each time.
As for `C=CC(=O)N1C2CCC1CN(c1ncc3ncnc(Nc4cc(C)c(Oc5ccc6c(c5)ncn6C(F)F)cc4OC)c3n1)C2` [Compound 40, 1-(3-(8-((4-((1-(difluoromethyl)-1H-benzo[d]imidazol-5-yl)oxy)-2-methoxy-5-methylphenyl)amino)pyrimido[5,4-d]pyrimidin-2-yl)-3,8-diazabicyclo[3.2.1]octan-8-yl)prop-2-en-1-one 2,2,2-trifluoroacetate], the values for the IC50 in experiment [1] and in experiment [2] were 100 to 500 nM and 500 to 1000 nM, respectively.
Consider `C=CC(=O)N[C@H]1CN(c2ccc3ncnc(Nc4ccc(Oc5ccc6c(c5)nnn6C)c(C)c4)c3n2)CC(F)(F)C1` [Compound 342, (R)-N-(5,5-difluoro-1-(4-((3-methyl-4-((1-methyl-1H-benzo[d][1,2,3]triazol-5-yl)oxy)phenyl)amino)pyrido[3,2-d]pyrimidin-6-yl)piperidin-3-yl)acrylamide], for which the figures for the IC50 in experiment [1] and in experiment [2] were 100 to 500 nM and 500 to 1000 nM, respectively.
